Test results: paper PMC6792352, “Limited Chemical Structural Diversity Found to Modulate Thyroid Hormone Receptor in the Tox21 Chemical Library” (Environmental Health Perspectives, 2019)
Counter-ions that a name gives are not always drawn.

Assay: in vitro
Settings: rat, gh3-tre-luc cells, AC50 (uM) modified / 1000

Compound | CC50 at 24 h [µM]
O=C(O)CSCC(=O)NC1CCSC1=O (stereo not shown) [Erdosteine] | > 50
CCCCCCCCCCCCCCCCCC(=O)OCCCCCCCCCCCCCC(C)C [Isocetyl stearate] | > 90
Cc1ccc(N)c([N+](=O)[O-])c1 [4-Methyl-2-nitroaniline] | > 90
OCCN1C[C@H](O)[C@@H](O)[C@H](O)[C@H]1CO [Miglitol] | > 50
C/C=C/C(=O)Oc1ccccc1[N+](=O)[O-] [Dinocap] | 14.3
O=C(O)c1snc(Cl)c1Cl [3,4-Dichloro-5-isothiazolecarboxylic acid] | > 90
CC(O)(c1ccc(Cl)cc1)c1ccc(Cl)cc1 [Chlorfenethol] | 76.2
NC(=O)c1ccc[n+]([C@@H]2O[C@H](COP(=O)([O-])OP(=O)(O)OC[C@H]3O[C@@H](n4cnc5c(N)ncnc54)[C@H](O)[C@@H]3O)[C@@H](O)[C@H]2O)c1 [Nadide] | > 20
c1coc(Cn2cccc2)c1 [1-Furfurylpyrrole] | > 90
CC(C)=CCOc1ccc(/C=C/C(=O)c2ccc(OCC=C(C)C)cc2OCC(=O)O)cc1 [Sofalcone] | 43
Cc1cc(C)c(S(=O)(=O)O)cc1N=Nc1cc(S(=O)(=O)O)c2ccccc2c1O [FD&C Red 4] | 33.6
c1cc[n+]2c(c1)-c1cccc[n+]1CC2 [Diquat dibromide monohydrate] | > 50
O=C(NCCc1c[nH]c2ccccc12)c1cccnc1 [Nicotredole] | > 50
CCCCC#N [Valeronitrile] | > 90
Cc1c(C(=O)O)c(O)cc2c1C(=O)c1c(O)c(C3OC(CO)C(O)C(O)C3O)c(O)c(O)c1C2=O (stereo not shown) [Cochineal] | 29.1
N[C@@H](Cc1c[nH]c2ccccc12)C(=O)O [l-Tryptophan] | > 90
CC(CO)(CO)[N+](=O)[O-] [2-Methyl-2-nitro-1,3-propanediol] | > 90
CC(C)CC=O [3-Methylbutanal] | > 90
NCCNCCNCCN [Triethylenetetramine] | > 90
CN(C)CC/C=C1/c2ccccc2Sc2ccc(Cl)cc21 [Chlorprothixene] | 11
CS(=O)(=O)OCCCNCCCOS(C)(=O)=O [Improsulfan tosylate] | > 50
O=C(O)CF [Sodium fluoroacetate] | > 90
CCCCCCCC/C=C/CCCCCCCC(=O)OCCO [Polyoxyethylene monoleate] | > 100
CCOC(=O)C(C)(C)C [Ethylpivalate] | > 90
C=CCOC(=O)C(C)(C)OC(=O)c1cc(-n2c(=O)cc(C(F)(F)F)n(C)c2=O)ccc1Cl [Butafenacil] | > 90

Compound | CC50 at 24 h [µM]
CC(=O)Oc1c(C)cc(OCC(O)CNC(C)C)c(C)c1C (stereo not shown) [Metipranolol] | > 50
Cc1c(Cn2ccnc2)c2ccccc2n1CCC(=O)O [Dazmegrel] | > 50
CN1CCN(c2cc3c(nn2)Oc2ccccc2N3C)CC1 [Pipofezine] | > 50
O=C(CCCN1CCC(C(=O)c2ccc(F)cc2)CC1)c1ccc(F)cc1 [Lenperone] | > 50
CCCCC(CC)CNCC(CC)CCCC (stereo not shown) [Bis-2-ethylhexylamine] | > 90
Cc1cccc(C)c1NC(=O)CN1CCCC1 [Pyrrocaine] | > 50
Cc1ncc(CSSCc2cnc(C)c(O)c2CO)c(CO)c1O [Pyrithioxin dihydrochloride] | > 50
CC(C)(C)C(O)/C(=C\c1ccc(Cl)cc1Cl)n1cncn1 (stereo not shown) [Diniconazole] | 73.4
O=C1Nc2ccccc2C1=O [Isatin] | > 90
CN(CCO)CC(O)Cn1cnc2c1c(=O)n(C)c(=O)n2C (stereo not shown) [Xanthinol niacinate] | > 50
O=[N+]([O-])C(CO)(CO)CO [2-(Hydroxymethyl)-2-nitro-1,3-propanediol] | > 90
O=C(Nc1ccc2[nH]ccc2c1)c1cc2cc(F)ccc2n1Cc1cccc(F)c1 [SAR115740] | 14.6
Nc1ccc(Sc2ccc(N)cc2)cc1 [4,4'-Thiodianiline] | > 90
C=CC(=O)OCCCCCC(C)C [Isooctyl acrylate] | > 100
COC(C)(C)CCO [3-Methoxy-3-methylbutan-1-ol] | > 90
O=c1oc2ccccc2c(O)c1Cc1c(O)c2ccccc2oc1=O [Dicumarol] | > 20
N[C@H]1C(O)O[C@H](CO)[C@@H](O)[C@@H]1O (stereo partly shown) [Glucosamine hydrochloride] | > 50
CCCCCCCC/C=C\CCCCCCCC(=O)OCCCC [9-Octadecenoic acid (9Z)-, butyl ester] | > 20
Cc1cc(SC2=C(O)C[C@@](CCc3ccc(N)cc3)(C(C)C)OC2=O)c(C(C)(C)C)cc1CO [CI-1029] | > 90
CO/N=C(\C(=O)N[C@@H]1C(=O)N2C(C(=O)[O-])=C(C[n+]3cccc4c3CCC4)CS[C@H]12)c1csc(N)n1 [Cefpirome sulfate] | > 50
CCC(COC(=O)c1cc(OC)c(OC)c(OC)c1)(c1ccccc1)N(C)C (stereo not shown) [Trimebutine maleate] | > 50
CN1CCCC1 [N-Methylpyrrolidine] | > 90
CCCCCCCCCCC(=O)O [Undecanoic acid] | > 90
Cc1cc(C)c(C(=O)O)c(C)c1 [2,4,6-Trimethylbenzoic acid] | > 90
CC(C)C(O)(c1ccc(OC(F)(F)F)cc1)c1cncnc1 (stereo not shown) [Flurprimidol] | > 90

Compound | CC50 at 24 h [µM]
CCCCC(CC)C(=O)OC(C)C (stereo not shown) [Propan-2-yl 2-ethylhexanoate] | > 90
Cc1c(C)n(CCN(C)C)c2ccc(C(=O)OCCN(C)C)cc12 [Amindocate] | 34.1
O=Cc1ccc(Cl)c([N+](=O)[O-])c1 [4-Chloro-3-nitrobenzaldehyde] | > 90
Nc1nc(Cl)cc(Cl)n1 [2-Amino-4,6-dichloropyrimidine] | > 90
CC(C)[C@@H](C)/C=C/[C@@H](C)[C@H]1CC[C@H]2/C(=C/C=C3\C[C@@H](O)CC[C@@H]3C)CCC[C@]12C [Dihydrotachysterol] | > 50
CC(C)=CCO [3-Methyl-2-buten-1-ol] | > 90
CC(C)N=C=NC(C)C [Diisopropylcarbodiimide] | > 90
CC1=NN(c2cc(S(=O)(=O)O)ccc2Cl)C(=O)C1N=Nc1ccccc1 (stereo not shown) [C.I. Acid Yellow 34, monosodium salt] | 92.1
O=C(O)c1ccccc1-c1c2ccc(=O)cc-2oc2cc(O)ccc12 [Fluorescein sodium] | > 50
O=C(c1ccccc1)c1ccc(O)c(O)c1O [2,3,4-Trihydroxbenzophenone] | 75
CCOP(=S)(OCC)Oc1ccc([N+](=O)[O-])cc1 [Parathion] | > 90
CC(C)(C)c1cccc(O)c1 [3-tert-Butylphenol] | > 90
CCOc1ccccc1OCCN[C@H](C)Cc1ccc(OC)c(S(N)(=O)=O)c1 [Tamsulosin hydrochloride] | > 50
CC(C)CCCC(C)NC(C)C (stereo not shown) [Iproheptine] | > 50
CCCCOCCOC(=O)CCCCCCCCC(=O)OCCOCCCC [Bis(2-butoxyethyl) decanedioate] | > 90
COc1ccc(COC=O)cc1 [4-Methoxybenzyl formate] | > 90
CCCCCCCCCCCl [1-Chlorodecane] | > 90
CN1CCN(Cc2cc(-c3ccc4[nH]c(=O)oc4c3)co2)[C@@H](c2ccc(F)cc2)C1 [AVE8488] | 24.8
O=C(O)c1ccco1 [2-Furancarboxylic acid] | > 90
CC(C)NCC(O)c1ccc([N+](=O)[O-])cc1 (stereo not shown) [Nifenalol] | > 50
CC/C=C/C#N [2-Pentenenitrile] | > 90
C=C1C(=O)O[C@H]2[C@H]1CC/C(C)=C/CC[C@@]1(C)O[C@@H]21 [Parthenolide] | 13.8
C=CCOC(=O)C(=C)C [Allyl methacrylate] | > 100
O=C(NC(=O)c1ccccc1Cl)Nc1ccc(OC(F)(F)F)cc1 [Triflumuron] | > 90
Cc1c(Cl)cccc1Nc1ccccc1C(=O)O [Tolfenamic acid] | > 50

Same assay, conditions: rat, gh3-tre-luc cells, AC50 (uM) modified / 1000, Tox21_110001=Tox21_112607; viability, 1 nM T3 present, 24 h

Compound | CC50 at 24 h [µM]
CN1[C@H]2CC[C@@H]1[C@@H](C(=O)O)[C@@H](OC(=O)c1ccccc1)C2 [Benzoylecgonine] | > 50

Same assay, conditions: rat, gh3-tre-luc cells, AC50 (uM) modified / 1000, Tox21_110001=Tox21_112829; viability, 1 nM T3 present, 24 h

Compound | CC50 at 24 h [µM]
C[C@H](CN1CCOCC1)C(C(=O)N1CCCC1)(c1ccccc1)c1ccccc1 [Dextromoramide tartrate] | > 100

Same assay, conditions: rat, gh3-tre-luc cells, AC50 (uM) modified / 1000, Tox21_110001=Tox21_112853; viability, 1 nM T3 present, 24 h

Compound | CC50 at 24 h [µM]
CN1[C@H]2CC[C@@H]1[C@@H](C(=O)O)[C@@H](OC(=O)c1ccccc1)C2 [Benzoylecgonine] | > 100

Same assay, conditions: rat, gh3-tre-luc cells, AC50 (uM) modified / 1000, Tox21_110001=Tox21_112859; viability, 1 nM T3 present, 24 h

Compound | CC50 at 24 h [µM]
CC(CC(C#N)(c1ccccc1)c1ccccc1)N(C)C (stereo not shown) [Premethadone] | 21.6

Same assay, conditions: rat, gh3-tre-luc cells, AC50 (uM) modified / 1000, Tox21_110001=Tox21_201640; viability, 1 nM T3 present, 24 h

Compound | CC50 at 24 h [µM]
C=C(C)CCl [3-Chloro-2-methylpropene] | > 90

Same assay, conditions: rat, gh3-tre-luc cells, AC50 (uM) modified / 1000, Tox21_110001=Tox21_300736; viability, 1 nM T3 present, 24 h

Compound | CC50 at 24 h [µM]
CNC(=S)S [Metam-sodium hydrate] | > 90

Same assay, conditions: rat, gh3-tre-luc cells, AC50 (uM) modified / 1000, Tox21_110001=Tox21_300752; viability, 1 nM T3 present, 24 h

Compound | CC50 at 24 h [µM]
CCCSP(=O)(OCC)Oc1ccc(Br)cc1Cl (stereo not shown) [Profenofos] | > 50

Same assay, conditions: rat, gh3-tre-luc cells, AC50 (uM) modified / 1000, Tox21_110001=Tox21_300822; viability, 1 nM T3 present, 24 h

Compound | CC50 at 24 h [µM]
COC(=O)c1c(C(F)F)nc(C(F)(F)F)c(C2=NCCS2)c1CC(C)C [Thiazopyr] | > 90

Same assay, conditions: rat, gh3-tre-luc cells, AC50 (uM) modified / 1000, Tox21_110001=Tox21_302421; viability, 1 nM T3 present, 24 h

Compound | CC50 at 24 h [µM]
CC(Cl)COP(=O)(OCC(C)Cl)OCC(C)Cl (stereo not shown) [Tris(2-chloropropyl) phosphate] | > 90

Same assay, conditions: rat, gh3-tre-luc cells, AC50 (uM) modified / 1000, Tox21_110001=Tox21_303609; viability, 1 nM T3 present, 24 h

Compound | CC50 at 24 h [µM]
C=C(C)CCl [3-Chloro-2-methylpropene] | > 9
